The values below come from patent publication US6632643B2, “Use of α-1,4-glucan lyase for preparation of 1,5-D-hydrofructose” (Danisco A/S, priority 1993, dated 2003).

Marks after values point to notes of the source that are not given here.

The test system of experiment [1] is M. costata lyase. As to the kind of experiment: Reversible and irreversible inhibitors of the fungal lyase (M. costata). It is filed as biochemical, Morchella costata. To be noted: for decrease of lyase activity (inhibition): 0.1 M inhibitor. As for the experimental part:
(§1) The reaction was carried out at 30 ° C. for 30 min and stopped by the addition of 3,5-dinitrosalicylic acid reagent. Optical density at 550 nm was measured after standing at room temperature for 10 min.
Under the same assay conditions and in the presence of 2 mM PCMB, the activity decreased by 60% for the M. costata lyase and 98% for the lyase from the fungal infected red algae. This means that the fungal lyase was much less sensitive to heavy metal inhibition.

Experiment [2] has as its system M. vulgaris lyase. In words: Reversible inhibitors of the M. vulgaris lyase. It is filed as biochemical, Morchella vulgaris. To be noted: 0.1 M inhibitor. As for the experimental part: as §1
The subject of experiment [3] is lyase from M. costata. As to the kind of experiment: Relative degrading rates of the lyase from M. costata towards various substrates. It is filed as biochemical, Morchella costata. To be noted: for activity (maltotetraose as 100%): purified fungal lyase, section B.1.4.3.
The subject of experiment [4] is α-1,4-glucan lyase from the parasite-free red seaweed Gracilariopsis lemaneiformis. In words: Degradation rates of the Californian algal lyase on various substrates. The format is biochemical. To be noted: for AF released: substrate 10 mg/ml, pH 3.8, 40 min at 45° C. As for the experimental part:
Reaction conditions: The reaction mixture contained 10 mM of HOAc-NaOAc (pH 3.8). The substrate concentration was 10 mg/ml. The final volume was 100 ul after the addition of lyase and water. The reaction time was 40 min at 45° C.

Experiment [5] concerns lyase from M. vulgaris. In words: Relative degrading rates of the lyase from M. vulgaris towards various substrates. The format is biochemical, Morchella vulgaris. To be noted: for Activity (%) (maltotetraose = 100%): all substrates 10 mg ml^−1. As for the experimental part: The activity observed for maltotetraose is treated as 100%. The final concentration of all substrates was 10 mg ml^−1.

The test system of experiment [6] is α-1,4-glucan lyase isolated from M. costata. As to the kind of experiment: Oligosaccharide specificity and AF formation by M. costata lyase, Dionex HPLC. To be noted: 8 mg/ml substrate, pH 6.3, 60 min, 30° C. The format is biochemical, Morchella costata. As for the experimental part:
The specificity of α-1,4-glucan lyase isolated from M. costata for different oligosaccharides was tested. […] The oligosaccharides were dissolved in H2O at a concentration of 8 mg/ml. The enzyme assay contained 150 μl substrate G2/G3/G4/G5/G6/G7, 120 μl 0.1M MBS pH 6.3 and 30 μl purified enzyme. The reaction mixture was incubated for 60 min at 30° C. Afterwards the reaction was stopped by boiling for 3 min and 900 μl absolute ethanol was added for precipitation. After centrifugation at 20.000×g for 5 min at 4° C. the supernatant was transferred to a new eppendorf tube and lyophilized.
The freeze-dried samples were dissolved in 1000 μl H2O and were filtrated through a 0.22 μm Millipore filter before 25 μl of the sample was loaded on the Dionex HPLC.
Analyses were performed on a Dionex 4500i chromatography system consisting of a GPM-2 pump and a PED detector which was used in pulse-amperometric detection mode.
α-1,4-glucan lyase from M.costata hydrolyses starch to the end-product 1,5-anhydrofructose. The end-product was shown by HPLC, method 2. The enzyme assay contained 500 μl amylopectin (20 mg/ml, dissolved in H2O), 400 μl 0.1M MES pH 6.3 and 100 μl purified enzyme. The reaction mixture was incubated at 30° C. and the reaction was stopped by boiling after 30 or 120 min incubation. […]

Experiment [7] has as its system α-1,4-glucan lyase. As to the kind of experiment: Activity of the lyase towards maltosaccharides (summary). The format is biochemical.
Experiment [8] concerns lyase from the fungal infected red algae. In words: Inhibition, activation and stabilisation of the lyase from fungal infected algae. The format is biochemical, fungal infected Gracilariopsis lemaneiformis. As for the experimental part:
[…] The reaction was carried out at 30° C. for 30 min and stopped by the addition of 3,5-dinitrosalicylic acid reagent. Optical density at 550 nm was measured after standing at room temperature for 10 min.

Experiment [9] relates to α-1,4-glucan lyase from the parasite-free red seaweed Gracilariopsis lemaneiformis. As to the kind of experiment: PCMB inhibition of the lyase from Californian alga. The format is biochemical. To be noted: final concentration 2 mM. As for the experimental part: 7. At a final concentration of 2 mM, p-chloromercuribenzoic acid (PCMB) inhibited the lyase activity by 96%, indicating the —SH group(s) is essential for the enzymatic activity.

The subject of experiment [10] is lyase from the fungal infected algae. As to the kind of experiment: Effect of reaction media on production of AF by the lyase. To be noted: NaCl 0.85% (0.145 M) in the reaction mixture. It is filed as biochemical, fungal infected Gracilariopsis lemaneiformis. The source says:
The production of AF using either pure water or 0.85% NaCl as reaction medium decreased the yield.

Experiment [11] relates to lyase from the fungal infected Gracilariopsis lemaneiformis. As to the kind of experiment: Reaction rates with glycogen and amylopectin, lyase from fungal infected Gracilariopsis lemaneiformis. It is filed as biochemical.

`O=C[C@H](O)[C@@H](O)[C@H](O)[C@H](O)CO` [Glucose, glucose]: the “decrease of lyase activity (inhibition)” value in experiment [1] (Amylopectin 2%) is recorded as 7%; in experiment [1] (Glycogen 1% (10 mg/ml)) it was 0.000%; in experiment [1] (Glycogen 1% (10 mg/ml), listed as glucose) it was “not affected”. Also, the “inhibition of lyase reaction” value in [2] (Amylopectin (1%)) is recorded as 28%; in [2] (Glycogen (1%)), 5%. Moreover, the “degradation (AF detectable on TLC plates)” value in [3] (incubated for 48 h) and in experiment [5] (incubated for 48 h) was “no AF detectable” throughout. The “degradation by the lyase” value in [4] was “not able to degrade”.

`OC[C@H]1O[C@H](O[C@H]2[C@H](O)[C@@H](O)C(O)O[C@@H]2CO)[C@H](O)[C@@H](O)[C@@H]1O` (mixture of isomers) [Maltose, maltose]: the “decrease of lyase activity (inhibition)” value in experiment [1] (Amylopectin 2%) is “(67.2%)”; in [1] (Glycogen 2%), “(49.7%)”. In addition, the “inhibition of lyase reaction” value came to 80% in experiment [2] (Amylopectin (1%)) and 57% in experiment [2] (Glycogen (1%)). Further, in experiment [6], the “1,5-anhydrofructose formed” value was “almost no 1,5-anhydrofructose was formed”. In experiment [3], the “activity (maltotetraose as 100%)” value is 2%. The “AF released” value in [4] is 657 nmol. Moreover, the “lyase activity towards maltosaccharide” value in experiment [7] is on record as “low activity”. For the same molecule, the “Activity (%) (maltotetraose = 100%)” value in [5] amounted to 10.1%.

With `OC[C@H]1NC[C@H](O)[C@@H](O)[C@@H]1O` [deoxyjirimycin], the “activity decreased to (remaining activity)” value in [1] (25 μM, amylopectin 2%) came out at 10.4%; in experiment [8] (25 μM, amylopectin 2%), 10.4%. Besides, the lyase activity entry in [1] (100 μM, amylopectin 2%) is “completely lost”; in [8] (100 μM, amylopectin 2%), “completely lost”.

On to `O=C(O)c1cc[c]([Hg][Cl])cc1` [PCMB, p-chloromercuribenzoic acid], for which the results for the “activity decreased by” value in experiment [1] (2 mM PCMB) and in experiment [8] (2 mM PCMB) were 60% and 98%, respectively. In addition, the “inhibition of lyase activity” value in experiment [9] came to 96%.

`[Cl-].[Na+]` [NaCl]: in experiment [10], the “increase of AF yield” value is recorded as “up to 1 -fold”.

For `OC[C@H]1O[C@H](O[C@H]2[C@H](O)[C@@H](O)[C@@H](O[C@H]3[C@H](O)[C@@H](O)[C@@H](O[C@H]4[C@H](O)[C@@H](O)[C@@H](O[C@H]5[C@H](O)[C@@H](O)C(O)O[C@@H]5CO)O[C@@H]4CO)O[C@@H]3CO)O[C@@H]2CO)[C@H](O)[C@@H](O)[C@@H]1O` (stereo partly drawn) [Maltopentaose, maltopentaose], the “relative degrading rate (maltotetraose = 100%)” value came to 107.1% in [3] (substrate 2 mg/ml), 100.1% in experiment [3] (substrate 4 mg/ml) and 99.7% in experiment [3] (substrate 10 mg/ml). Further, the “AF released” value in [4] worked out at 674 nmol. In addition, in experiment [7], the “lyase activity towards maltosaccharide” value is recorded as “highest activity”. In experiment [5], the “Activity (%) (maltotetraose = 100%)” value is listed as 79.3%.

Turning to `OCC1OC(OC2C(CO)OC(OC3C(CO)OC(O)C(O)C3O)C(O)C2O)C(O)C(O)C1O` (stereo not drawn) [Maltotriose, maltotriose], the “activity (maltotetraose as 100%)” value in experiment [3] is 56%. The “relative degrading rate (maltotetraose = 100%)” value in [3] (substrate 2 mg/ml) is 40.6%; in experiment [3] (substrate 4 mg/ml) it was 58.6%; in experiment [3] (substrate 10 mg/ml), 56.0%. For the same molecule, the “AF released” value in [4] is given as 654 nmol. Moreover, in experiment [7], the “lyase activity towards maltosaccharide” value is on record as “lower activity”. For the same molecule, in [5], the “Activity (%) (maltotetraose = 100%)” value came out at 49.8%.

Take Amylopectin: the relative reaction rates in [11] (25 C.) is recorded as 0.818^a; in [11] (30 C.), 1.133^a; in experiment [11] (45 C.), 1.17^a. Also, the “degradation by the fungal lyase” value in experiment [3] is “also degraded”. In addition, the “relative degrading rate (maltotetraose = 100%)” value in experiment [3] (substrate 10 mg/ml) was determined as 106.5%. The “substrate concentration at which half of the maximal velocity rate was reached” value in experiment [4] is 3.76 mg/mL. Also, the “AF released” value in [4] was determined as 732 nmol. In addition, the “stabilizing effect on the lyase” value in [8] (soluble and immobilized enzyme system) is “stabilizing effect”. Besides, the “Activity (%) (maltotetraose = 100%)” value in experiment [5] came to 139.9%.

`OC[C@H]1O[C@H](O[C@H]2[C@H](O)[C@@H](O)[C@@H](O[C@H]3[C@H](O)[C@@H](O)[C@@H](O[C@H]4[C@H](O)[C@@H](O)[C@@H](O[C@H]5[C@H](O)[C@@H](O)[C@@H](O[C@H]6[C@H](O)[C@@H](O)[C@@H](O[C@H]7[C@H](O)[C@@H](O)C(O)O[C@@H]7CO)O[C@@H]6CO)O[C@@H]5CO)O[C@@H]4CO)O[C@@H]3CO)O[C@@H]2CO)[C@H](O)[C@@H](O)[C@@H]1O` (stereo partly drawn) [Maltoheptaose, maltoheptaose]: the “activity (maltotetraose as 100%)” value in [3] is reported as 76%. The “relative degrading rate (maltotetraose = 100%)” value in experiment [3] (substrate 2 mg/ml) is 82.2%; in experiment [3] (substrate 4 mg/ml), 81.5%; in [3] (substrate 10 mg/ml) it was 75.7%. The “AF released” value in experiment [4] is 865 nmol. The “lyase activity towards maltosaccharide” value in [7] was “lower activity”. The “Activity (%) (maltotetraose = 100%)” value in experiment [5] stood at 73.9%.
